# According to US10724101B2, “Biomarker SCNN1B for gastric cancer” (The Chinese University of Hong Kong, priority 2016, dated 2020):
# Tested on: gastric cancer cell lines (AGS, KATOIII, MGC803, MKN28, MKN45 and SNU1) with silenced SCNN1B expression
# Assay: Demethylation treatment with 5-Aza; SCNN1B expression by semiquantitative RT-PCR
# Assay type: cell-based, human
# Details: 10 μM 5-Aza for 5 days; six cell lines with silenced SCNN1B; FIG. 4
# Experimental: Semiquantitative RT-PCR was performed in a total volume of 25 μL reaction containing 1× Premix Ex Taq (Takara, Ohtsu, Japan) and 5-10 ng cDNA. The PCR program started with an initial denaturation at 95° C. for 10 min, followed by 27-35 cycles (95° C. for 30 sec, annealing temperature for 30 sec, and 72° C. for 30 sec) of amplification, with a final extension at 72° C. for 10 min. The PCR bands were visualized under ultraviolet light and photographed. The expression of the target gene was normalized by the expression of house-keeping gene β-actin, which served as an internal control.
# Cells were seeded at a density of 1×10^5/100-mm dishes and grew for 24 hr. Cells were then treated with 10 μM 5-aza-2′-deoxycytidine (“5-Aza”) (Sigma-Aldrich) for 5 days. The 5-Aza was replenished every day. The gene expression of SCNN1B was evaluated using semiquantitative RT-PCR.
smiles,measurement,value
"Nc1ncn([C@H]2C[C@H](O)[C@@H](CO)O2)c(=O)n1 [5-Aza, 5-aza-2′-deoxycytidine]",expression of SCNN1B after demethylation treatment,Restored expression of SCNN1B
